Columns and labels:
Human alpha-thrombin = Human alpha-thrombin (Homo sapiens (Human), UniProt P00734); experiment: Thrombin counterscreen for selectivity, fluorogenic substrate cleavage; type: biochemical; details: 10 min pre-incubation, Boc-Val-Pro-Arg-AMC 20 μM
Human FXIIa = Human FXIIa (Homo sapiens (Human), UniProt P00748); experiment: Factor XIIa (FXIIa) inhibitory activity, chromogenic substrate (Pefachrome XIIa) cleavage; type: biochemical; details: 10 min pre-incubation, Pefachrome XIIa 400 μM
Sequence of Human FXIIa (P00748 373-615): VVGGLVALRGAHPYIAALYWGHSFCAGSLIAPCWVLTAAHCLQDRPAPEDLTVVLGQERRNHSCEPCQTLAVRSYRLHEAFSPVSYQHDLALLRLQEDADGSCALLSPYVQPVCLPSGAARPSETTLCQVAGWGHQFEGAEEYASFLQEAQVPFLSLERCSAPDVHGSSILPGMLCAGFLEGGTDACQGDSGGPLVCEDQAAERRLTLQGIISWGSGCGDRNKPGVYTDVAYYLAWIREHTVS
Sequence of Human FXIIa (P00748 20-372 partner): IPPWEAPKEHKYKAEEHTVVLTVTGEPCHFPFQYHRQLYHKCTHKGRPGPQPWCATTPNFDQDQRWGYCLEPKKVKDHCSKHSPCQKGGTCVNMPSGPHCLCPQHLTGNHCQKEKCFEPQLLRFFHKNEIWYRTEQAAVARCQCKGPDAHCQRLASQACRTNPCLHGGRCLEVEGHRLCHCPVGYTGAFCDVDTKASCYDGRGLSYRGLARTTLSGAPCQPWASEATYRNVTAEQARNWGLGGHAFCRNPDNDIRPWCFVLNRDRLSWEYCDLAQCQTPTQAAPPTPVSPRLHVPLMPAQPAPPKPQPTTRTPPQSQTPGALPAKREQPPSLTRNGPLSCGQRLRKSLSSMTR

Row | Structure (SMILES) | IC50 (Human alpha-thrombin) [nM] | IC50 (Human FXIIa) [nM]
1 | CCS(=O)(=O)N1CCc2c(N)nn(C(=O)C3CCNc4ccccc43)c2C1 (centres unmarked) [Example 126, (3-amino-6-(ethylsulfonyl)-4,5,6,7-tetrahydro-pyrazolo[3,4-c]pyridin-1-yl)(1,2,3,4-tetrahydro-quinolin-4-yl)methanone] | > 70000 | 32000
2 | CCN1CCc2c(nn(C(=O)[C@H]3CCNc4c(C)cccc43)c2N)C1 (single isomer, unassigned) [Example 173, (S*)-(3-amino-6-ethyl-4,5,6,7-tetrahydro-pyrazolo[3,4-c]pyridin-2-yl)(8-methyl-1,2,3,4-tetrahydroquinolin-4-yl)methanone] | > 100000 | 20
3 | Nc1c2c(nn1C(=O)C1CCNc3ccccc31)CNCC2 (centres unmarked) [Example 118, (3-amino-4,5,6,7-tetrahydro-pyrazolo[3,4-c]pyridin-2-yl)(1,2,3,4-tetrahydro-quinolin-4-yl)methanone] | > 100000 | 600
4 | CC(C)CN1CCc2c(nn(C(=O)C3CCNc4ccc(F)cc43)c2N)C1 (centres unmarked) [Example 153, (3-amino-6-isobutyl-4,5,6,7-tetrahydro-pyrazolo[3,4-c]pyridin-2-yl)(6-fluoro-1,2,3,4-tetrahydro-quinolin-4-yl)methanone] | > 100000 | 50
5 | Cc1cc2c(C(=O)n3nc4c(c3N)CCN(C(=O)OC(C)(C)C)C4)cccc2[nH]1 [Example 7, Tert-butyl 3-amino-2-(2-methyl-1H-indole-4-carbonyl)-4,5-dihydro-2H-pyrazolo[3,4-c]pyridine-6(7H)-carboxylate] | > 25000 | 70
6 | CS(=O)(=O)N1CCc2c(N)nn(C(=O)C3CCNc4ccccc43)c2C1 (centres unmarked) [Example 104, (3-amino-6-(methylsulfonyl)-4,5,6,7-tetrahydro-pyrazolo[3,4-c]pyridin-1-yl)(1,2,3,4-tetrahydro-quinolin-4-yl)methanone] | > 85000 | 80000
7 | Nc1c2c(nn1C(=O)C1CCNc3ccc(F)cc31)CN(c1ccccc1)CC2 (centres unmarked) [Example 28, (3-amino-6-phenyl-4,5,6,7-tetrahydropyrazolo[3,4-c]pyridin-2-yl)(6-fluoro-1,2,3,4-tetrahydroquinolin-4-yl)methanone] | > 35000 | 160
8 | CS(=O)(=O)N1CCc2c(nn(C(=O)C3CCNc4ccc(F)cc43)c2N)C1 (single isomer, unassigned) [Example 16, (3-amino-6-(methylsulfonyl)-4,5,6,7-tetrahydropyrazolo[3,4-c]pyridin-2-yl)(6-fluoro-1,2,3,4-tetrahydroquinolin-4-yl)methanone] | 20000 | 60
9 | Nc1nn(C(=O)C2CCNc3ccccc32)c2c1CCN(C(=O)OCc1ccccc1)C2 (centres unmarked) [Example 117, benzyl 3-amino-1-(1,2,3,4-tetrahydro-quinoline-4-carbonyl)-4,5-dihydro-1H-pyrazolo[3,4-c]pyridine-6(7H)-carboxylate] | 5000 | 45000
10 | Nc1c2c(nn1C(=O)[C@H]1CCNc3ccc(F)cc31)COCC2 (single isomer, unassigned) [Example 196, (S*)-(3-amino-4,5-dihydropyrano[3,4-c]pyrazol-2(7H)-yl)(6-fluoro-1,2,3,4-tetrahydro-quinolin-4-yl)methanone] | 95000 | 80
11 | CNC(=O)N1CCc2nn(C(=O)C3CCNc4ccccc43)c(N)c2C1 (centres unmarked) [Example 89, 3-amino-N-methyl-2-(1,2,3,4-tetrahydro-quinoline-4-carbonyl)-6,7-dihydro-2H-pyrazolo[4,3-c]pyridine-5(4H)-carboxamide] | > 80000 | 800
12 | Nc1c2c(nn1C(=O)C1CCNc3ccc(F)cc31)COCC2 (centres unmarked) [Example 194, (3-amino-4,5-dihydropyrano[3,4-c]pyrazol-2(7H)-yl)(6-fluoro-1,2,3,4-tetrahydro-quinolin-4-yl)methanone] | 70000 | 160
13 | Nc1c2c(nn1C(=O)C1CCNc3ccccc31)CN(C(=O)c1ccccc1)CC2 (centres unmarked) [Example 109, (3-amino-2-(1,2,3,4-tetrahydro-quinoline-4-carbonyl)-4,5-dihydro-2H-pyrazolo[3,4-c]pyridin-6(7H)-yl)(phenyl)-methanone] | > 75000 | 800
14 | CC(C)(C)S(=O)(=O)N1CCc2c(nn(C(=O)C3CCNc4ccc(F)cc43)c2N)C1 (centres unmarked) [Example 138, (3-amino-6-(tert-butylsulfonyl)-4,5,6,7-tetrahydro-pyrazolo[3,4-c]pyridin-2-yl)(6-fluoro-1,2,3,4-tetrahydro-quinolin-4-yl)methanone] | > 100000 | 80
15 | Cc1cccc2c1NCC[C@@H]2C(=O)n1nc2c(c1N)CCNC2 (single isomer, unassigned) [Example 176, (S*)-(3-amino-4,5,6,7-tetrahydro-pyrazolo[3,4-c]pyridin-2-yl)(8-methyl-1,2,3,4-tetrahydro-quinolin-4-yl)methanone] | > 90000 | 100
16 | CCc1cc(C)c2c(c1)C(C(=O)n1nc3c(c1N)CCN(S(C)(=O)=O)C3)CCN2 (centres unmarked) [Example 55, (3-amino-6-(methylsulfonyl)-4,5,6,7-tetrahydropyrazolo[3,4-c]pyridin-2-yl)(6-ethyl-8-methyl-1,2,3,4-tetrahydroquinolin-4-yl)methanone] | > 70000 | 40

Row | Structure (SMILES) | IC50 (Human alpha-thrombin) [nM] | IC50 (Human FXIIa) [nM]
17 | CCCN1CCc2c(nn(C(=O)C3CCNc4ccc(F)cc43)c2N)C1 (centres unmarked) [Example 149, (3-amino-6-propyl-4,5,6,7-tetrahydro-pyrazolo[3,4-c]pyridin-2-yl)(6-fluoro-1,2,3,4-tetrahydro-quinolin-4-yl)methanone] | 64000 | 50
18 | Cc1cc2c(C(=O)n3nc4c(c3N)CCN(S(C)(=O)=O)C4)cccc2[nH]1 [Example 101, (3-amino-6-(methylsulfonyl)-4,5,6,7-tetrahydro-pyrazolo[3,4-c]pyridin-2-yl)(2-methyl-1H-indol-4-yl)methanone] | 10000 | 20
19 | Cc1ccc2c(c1)C(C(=O)n1nc3c(c1N)CCN(S(C)(=O)=O)C3)CCN2 (centres unmarked) [Example 12, (3-amino-6-(methylsulfonyl)-4,5,6,7-tetrahydropyrazolo[3,4-c]pyridin-2-yl)(6-methyl-1,2,3,4-tetrahydroquinolin-4-yl)methanone] | > 55000 | 300
20 | CCc1cc2c([nH]1)CCCC2C(=O)n1nc2c(c1N)CN(C(=O)OCc1ccccc1)CC2 (centres unmarked) [Example 4, Benzyl 3-amino-2-(2-ethyl-4,5,6,7-tetrahydro-1H-indole-4-carbonyl)-6,7-dihydro-2H-pyrazolo[4,3-c]pyridine-5(4H)-carboxylate] | > 25000 | 300
21 | CCC(=O)N1CCc2c(nn(C(=O)C3CCNc4ccccc43)c2N)C1 (centres unmarked) [Example 119, 1-(3-amino-2-(1,2,3,4-tetrahydro-quinoline-4-carbonyl)-4,5-dihydro-2H-pyrazolo[3,4-c]pyridin-6(7H)-yl)propan-1-one] | > 85000 | 450
22 | Cc1cc(F)cc2c1NCCC2C(=O)n1nc2c(c1N)CCN(S(C)(=O)=O)C2 (centres unmarked) [Example 51, (3-amino-6-(methylsulfonyl)-4,5,6,7-tetrahydropyrazolo[3,4-c]pyridin-2-yl)(6-fluoro-8-methyl-1,2,3,4-tetrahydroquinolin-4-yl)methanone] | 15000 | 20
23 | CS(=O)(=O)N1CCc2c(N)nn(C(=O)C3CCNc4ccc(-c5ccncc5)cc43)c2C1 (centres unmarked) [Example 169, (3-amino-6-(methylsulfonyl)--4,5,6,7-tetrahydro-pyrazolo[3,4-c]pyridin-1-yl)(6-(pyridin-4-yl)-1,2,3,4-tetrahydro-quinolin-4-yl)methanone] | 15000 | 15000
24 | Nc1c2c(nn1C(=O)C1CCNc3ccccc31)CN(C(=O)OCc1ccccc1)CC2 (centres unmarked) [Example 116, benzyl 3-amino-2-(1,2,3,4-tetrahydro-quinoline-4-carbonyl)-4,5-dihydro-2H-pyrazolo[3,4-c]pyridine-6(7H)-carboxylate] | 17000 | 1000
25 | CN1CCc2nn(C(=O)C3CCCc4[nH]ccc43)c(N)c2C1 (centres unmarked) [Example 97, (3-amino-5-methyl-4,5,6,7-tetrahydro-pyrazolo[4,3-c]pyridin-2-yl)(4,5,6,7-tetrahydro-1H-indol-4-yl)methanone] | > 80000 | 8500
26 | Nc1c2c(nn1C(=O)C1CCNc3ccc(F)cc31)CN(S(=O)(=O)C(F)F)CC2 (centres unmarked) [Example 159, (3-amino-6-(difluoromethyl-sulfonyl)-4,5,6,7-tetrahydro-pyrazolo[3,4-c]pyridin-2-yl)(6-fluoro-1,2,3,4-tetrahydro-quinolin-4-yl)methanone] | 70000 | 130
27 | CC(=O)N1CCc2c(nn(C(=O)c3cccc4[nH]c(C)cc34)c2N)C1 [Example 99, 1-(3-amino-2-(2-methyl-1H-indole-4-carbonyl)-4,5-dihydro-2H-pyrazolo[3,4-c]pyridin-6(7H)-yl)ethanone] | > 50000 | 40
28 | COC(=O)N1CCc2c(nn(C(=O)C3CCNc4ccccc43)c2N)C1 (centres unmarked) [Example 114, methyl 3-amino-2-(1,2,3,4-tetrahydro-quinoline-4-carbonyl)-4,5-dihydro-2H-pyrazolo[3,4-c]pyridine-6(7H)-carboxylate] | > 80000 | 450
29 | CN1CCc2nn(C(=O)C3CCCc4[nH]c(Cl)cc43)c(N)c2C1 (centres unmarked) [Example 3, (3-amino-5-methyl-4,5,6,7-tetrahydropyrazolo[4,3-c]pyridin-2-yl)(2-chloro-4,5,6,7-tetrahydro-1H-indol-4-yl)methanone] | > 35000 | 350
30 | CS(=O)(=O)N1CCc2c(nn(C(=O)C3CCNc4ccc(Cl)cc43)c2N)C1 (centres unmarked) [Example 14, (3-amino-6-(methylsulfonyl)-4,5,6,7-tetrahydropyrazolo[3,4-c]pyridin-2-yl)(6-chloro-1,2,3,4-tetrahydroquinolin-4-yl)methanone] | 20000 | 40
31 | Cc1cccc2c1NCCC2C(=O)n1nc2c(c1N)COCC2 (centres unmarked) [Example 188, (3-amino-6,7-dihydropyrano[4,3-c]pyrazol-2(4H)-yl)(8-methyl-1,2,3,4-tetrahydro-quinolin-4-yl)methanone] | > 80000 | 170

— patent publication US11312723B2, “Pyranopyrazole and pyrazolopyridine immunomodulators for treatment of autoimmune diseases” (The Rockefeller University, priority 2017, dated 2022)
